# The supplement of paper PMC10307832
# Assays:
# Test in all cases: relative viability (nuclei count vs DMSO), 5 days (fraction); higher = more cells survive
# GSK-J4 + Luminespib = compound: CCOC(=O)CCNc1cc(N2CCc3ccccc3CC2)nc(-c2ccccn2)n1 [GSK-J4] + CCNC(=O)c1noc(-c2cc(C(C)C)c(O)cc2O)c1-c1ccc(CN2CCOCC2)cc1 [Luminespib] (partner 0.01 µM)
# Procedure, shortened: (§1)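 A single step with final 0.05% Triton X-100, 1% formaldehyde and 1 ug/ml Hoechst fixed the cells and stained nuclei 5 days after treatment. Lung cancer cell lines in 1536-well plates had been treated by pin tool the day after seeding with one drug alone or a fixed anchor-drug dose plus five library-drug doses (not always all listed) in √10 steps, and nuclei were counted on 4× images. Relative viability is the ratio of nuclei in treated wells to nuclei in vehicle wells, taken as the median of duplicate plates.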
# AZ3146 + OSI-027 = compound: CN1CCC(CC1)OC2=CC(=C(C=C2)NC3=NC=C4C(=N3)N(C(=O)N4C)C5CCCC5)OC [AZ3146] + COc1cccc2cc(-c3nc([C@H]4CC[C@H](C(=O)O)CC4)n4ncnc(N)c34)[nH]c12 [OSI-027] (partner 0.5 µM)
# Procedure, shortened: as §1
# GSK-J4 + Pictilisib = compound: CCOC(=O)CCNc1cc(N2CCc3ccccc3CC2)nc(-c2ccccn2)n1 [GSK-J4] + CS(=O)(=O)N1CCN(Cc2cc3nc(-c4cccc5[nH]ncc45)nc(N4CCOCC4)c3s2)CC1 [Pictilisib] (partner 1 µM)
# Procedure, shortened: as §1
# AZ3146 + AZD7762 = compound: CN1CCC(CC1)OC2=CC(=C(C=C2)NC3=NC=C4C(=N3)N(C(=O)N4C)C5CCCC5)OC [AZ3146] + NC(=O)Nc1cc(-c2cccc(F)c2)sc1C(=O)N[C@H]1CCCNC1 [AZD7762] (partner 0.2 µM)
# Procedure, shortened: as §1
Cell Line,relative viability (GSK-J4 + Luminespib; first compound 0.5 µM),relative viability (GSK-J4 + Luminespib; first compound 1.581 µM),relative viability (GSK-J4 + Luminespib; first compound 15.81 µM),relative viability (GSK-J4 + Luminespib; first compound 50 µM),relative viability (AZ3146 + OSI-027; first compound 0.08 µM),relative viability (AZ3146 + OSI-027; first compound 0.253 µM),relative viability (AZ3146 + OSI-027; first compound 0.8 µM),relative viability (AZ3146 + OSI-027; first compound 2.53 µM),relative viability (AZ3146 + OSI-027; first compound 8 µM),relative viability (GSK-J4 + Pictilisib; first compound 0.5 µM),relative viability (GSK-J4 + Pictilisib; first compound 1.581 µM),relative viability (GSK-J4 + Pictilisib; first compound 5 µM),relative viability (GSK-J4 + Pictilisib; first compound 15.81 µM),relative viability (GSK-J4 + Pictilisib; first compound 50 µM),relative viability (AZ3146 + AZD7762; first compound 0.08 µM),relative viability (AZ3146 + AZD7762; first compound 0.253 µM),relative viability (AZ3146 + AZD7762; first compound 0.8 µM),relative viability (AZ3146 + AZD7762; first compound 2.53 µM),relative viability (AZ3146 + AZD7762; first compound 8 µM),relative viability (GSK-J4 + Luminespib; first compound 5 µM)
HCC-44,1.02,0.897,0.939,0.747,0.484,0.427,0.416,0.622,0.558,0.665,0.57,0.498,0.553,0.442,1.02,0.978,1.12,1,0.979,
HCC-827,0.566,0.629,0.405,0.526,0.84,0.763,0.807,0.786,0.726,0.945,1.13,1.14,0.949,1.03,0.154,0.17,0.188,0.212,0.213,0.832
HOP-62,0.877,0.937,0.794,0.396,0.755,0.796,0.742,0.857,0.866,0.735,0.322,0.762,0.76,0.387,0.276,0.61,0.485,0.582,0.791,0.917
LC-2-ad,0.851,0.889,0.886,0.54,0.694,0.781,0.801,0.92,0.819,0.548,0.458,0.622,0.547,0.322,0.75,0.841,0.822,0.886,0.78,0.701
LCLC-97TM1,0.725,0.722,0.415,0.256,0.501,0.585,0.364,0.415,0.396,,,0.399,0.249,0.15,0.311,0.339,0.262,0.381,0.273,0.773
LCLC-103H,0.96,0.917,0.882,0.486,0.423,0.474,0.529,0.456,0.501,0.704,0.6,0.542,0.691,0.627,0.623,0.714,0.767,0.789,0.831,1.01
LK-2,0.191,,0.193,0.159,0.227,0.181,0.146,0.206,0.178,0.573,0.531,0.736,0.456,0.443,,,0.372,0.347,0.286,0.151
LOU-NH91,0.347,0.329,0.267,0.246,0.726,0.61,0.7,0.702,0.745,0.596,0.508,0.542,0.532,0.518,0.778,0.755,0.802,0.775,0.743,0.254
LU99A,0.201,0.267,0.244,0.223,0.28,0.306,0.309,0.317,0.228,0.277,0.276,0.292,0.346,0.219,,0.378,0.295,0.276,0.264,
LXF-289,0.648,0.639,0.627,0.507,0.775,0.704,0.77,0.781,0.77,0.761,0.655,0.691,0.754,0.562,1.02,1.16,1.05,1.1,1.05,0.785
NCI-H23,0.212,0.197,0.209,0.201,0.621,0.699,0.403,0.746,0.616,0.535,,0.545,0.49,0.319,0.157,0.3,0.27,0.216,0.163,0.215
NCI-H322M,0.857,0.756,0.646,0.542,0.51,0.581,0.509,0.601,0.48,0.544,0.574,0.7,0.538,0.465,0.595,0.529,0.581,0.825,0.506,0.953
NCI-H358,0.292,0.304,0.397,0.337,0.762,0.753,0.661,0.82,0.431,0.459,0.304,0.377,0.407,0.268,0.346,0.469,0.363,0.581,0.313,0.354
NCI-H441,0.303,0.298,0.394,0.308,0.611,0.656,0.528,0.663,0.529,0.427,0.458,0.571,0.506,0.403,1.08,1.31,1.14,1.09,0.949,0.476
NCI-H460,0.0274,0.0313,0.0363,0.0333,0.636,0.72,0.622,0.622,0.423,0.43,0.457,0.519,0.343,0.217,0.461,0.744,0.522,0.546,0.559,0.03
NCI-H596,0.981,0.969,0.941,0.807,0.683,0.698,0.669,0.762,0.563,0.417,0.428,0.365,0.431,0.369,1.11,1.21,1.15,0.986,1.13,1.23
